Consider 13 compounds from patent US20160263087A1, “NOVEL 4-(INDOL-3-YL)-PYRAZOLE DERIVATIVES, PHARMACEUTICAL COMPOSITIONS AND METHODS FOR USE” (ITEOS THERAPEUTICS, priority 2013, published 2016).

The target of data set [1] is T1, human TDO2 (Homo sapiens, UniProt P48775). Nature of the data set: Cellular assay for TDO2 activity, hTDO2-overexpressing P815 cells. Type of data set: cell-based. Set-up: expressed in transfected cells; host or cells: murine mastocytoma P815 cells. Particulars: murine mastocytoma P815 cells overexpressing hTDO2, overnight incubation, kynurenine absorbance at 480 nm. As to the method:
The assay was performed in 96-well flat bottom plates seeded with murine mastocytoma P815 cells overexpressing hTDO2 (prepared as described in Pilotte et al., PNAS, 2012, 109(7), 2497-2502), at a concentration of 5×10^4 cells/well in a final volume of 200 μL. To determine TDO or IDO activity, the cells were incubated overnight at 37° C. at 5% CO2 in IMDM (Invitrogen) supplemented with 2% FBS and 2% penicillin/streptomycin in the presence of the compounds of the present invention, at different concentrations.
(§1) The plates were then centrifuged 5 min at 1000 rpm, and 100 μL of the supernatant were collected in a conical plate, 30 uL of TCA 30% were added and a further centrifugated at 3000×g for 10 minutes. 100 μL of the supernatant were collected in a flat bottomed plate and 100 μL of 2% (w/v) 4-(dimethylamino)-benzaldehyde in acetic acid and incubated for 5 min at room temperature. Kynurenine concentrations were determined by measuring the absorbance at 480 nm. A standard curve was made with pure kynurenine. The TDO activity was measured as described above using ten serial concentrations of the compounds of the present invention. Data were fitted using the Prism software (GraphPad Software, Inc.).

For data set [2], the target named is T1, human TDO2. Briefly: Assay for TDO2 enzymatic activity determination. The following applies: human recombinant TDO2, L-Trp 1 mM, room temperature, one hour, kynurenine absorbance at 480 nm. Details: made in house. Type of data set: biochemical. As to the method:
To measure the TDO2 activity, the reaction mixture contained (final concentrations) potassium phosphate buffer (50 mM, pH 7.5), ascorbic acid (0.25 M), methylene blue (0.125 μM), catalase (40 units/mL, from bovine liver, Sigma), and human recombinant TDO2 enzyme (prepared as described in Dolusic et al. J. Med. Chem.; 2011, 54, 5320-5334; 0.9 μg) without or with the compounds of the present invention at the indicated concentrations (total volume 112.5 μL). The reaction was initiated by the addition of 37.5 μL of L-Trp (final concentration 1 mM) at room temperature. The reaction was conducted at room temperature during one hour and stopped by the addition of 30 μL of 30% (w/v) trichloroacetic acid.
To convert N-formylkynurenine into kynurenine, the reaction mixture was incubated at 65° C. for 30 min. Then 150 μL of the reaction mixture was mixed with 120 μL of 2.5% (w/v) 4-(dimethylamino)-benzaldehyde in acetic acid and incubated for 5 min at room temperature. Kynurenine concentrations were determined by measuring the absorbance at 480 nm. A standard curve was made with pure kynurenine. The TDO activity was measured as described above using ten serial concentrations of the compounds of the present invention. Data were fitted using the Prism software (GraphPad Software, Inc.).

Data set [3] has as its target T1, human TDO2. Briefly: Cellular assay for TDO2 activity, A172 cells naturally expressing hTDO2. Type of data set: cell-based. The following applies: A172 cells naturally expressing hTDO2, overnight incubation, kynurenine absorbance at 480 nm. Details: expressed in transfected cells; host or cells: murine mastocytoma P815 cells. The method, then: The assay was performed in 96-well flat bottom plates seeded with […] A172 cells, naturally expressing hTDO2 (prepared as described in Tilman et al., Mol Cancer, 2007, 17(6), 80), at a concentration of 1.25×10^4 cells/well in a final volume of 200 μL. To determine TDO, the cells were incubated overnight at 37° C. at 5% CO2 in IMDM (Invitrogen) supplemented with 2% FBS and 2% penicillin/streptomycin in the presence of the compounds of the present invention, at different concentrations.
as §1

The target in data set [4] is T2, TDO2 (Mus musculus, UniProt P48776).
T2 construct: from tissue; host or cells: live mice (whole animal; plasma tryptophan read-out)
T2 sequence (P48776 whole entry): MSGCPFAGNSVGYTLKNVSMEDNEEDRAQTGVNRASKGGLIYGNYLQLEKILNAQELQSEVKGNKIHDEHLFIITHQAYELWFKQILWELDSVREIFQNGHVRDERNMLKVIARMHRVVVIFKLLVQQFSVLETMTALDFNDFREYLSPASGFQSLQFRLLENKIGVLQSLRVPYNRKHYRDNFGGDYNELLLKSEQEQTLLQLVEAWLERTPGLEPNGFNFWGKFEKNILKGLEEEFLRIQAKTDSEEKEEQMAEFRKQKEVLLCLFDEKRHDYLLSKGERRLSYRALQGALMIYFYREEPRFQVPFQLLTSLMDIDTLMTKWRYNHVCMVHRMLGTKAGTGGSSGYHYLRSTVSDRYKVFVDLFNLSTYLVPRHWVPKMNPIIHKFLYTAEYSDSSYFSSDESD
Nature of the data set: Pharmacodynamic assay for TDO2 in vivo activity: increase of blood tryptophan levels in mice. The following applies: for increase of circulating Tryptophan: plasma after two hours, vs vehicle; for Tryptophan concentration in plasma (average ± standard error of the mean): two hours, LC-MS-MS. As to the method: The compounds of the present invention increase the amount of Tryptophan in mouse blood.
Briefly, mice were treated with either a suspension of one of the compounds of the present invention in 0.5% HPMC K4M/0.25% Tween 20 at different doses (30, 60 and 100 mg/kg), or with a vehicle control (0.5% HPMC K4M/0.25% Tween 20), by the oral route by gavage (dosing volume 5 mL/kg, 10 mice per group). After two hours, blood was harvested, plasma was prepared and the amount of Tryptophan present was determined by LC-MS-MS (HPLC column Unison UK-Phenyl, 75×4.6, 3 μm, flow rate 0.8 mL/min, 8 minutes gradient from 95% water+0.1% formic acid/5% Acetonitrile+0.1% formic acid to 5% water+0.1% formic acid/95% Acetonitrile+0.1% formic acid, retention time 2.4 min; API4000 MS-MS system from AB Sciex, ESI+ mode, parent ion 205.1, daughter ion 146.1).

As a reminder, the IC50 is the concentration that gives 50% inhibition. In general, melting point refers to the temperature of the solid-liquid transition.

Molecules are shown by their SMILES.

T1 sequence (P48775 whole entry): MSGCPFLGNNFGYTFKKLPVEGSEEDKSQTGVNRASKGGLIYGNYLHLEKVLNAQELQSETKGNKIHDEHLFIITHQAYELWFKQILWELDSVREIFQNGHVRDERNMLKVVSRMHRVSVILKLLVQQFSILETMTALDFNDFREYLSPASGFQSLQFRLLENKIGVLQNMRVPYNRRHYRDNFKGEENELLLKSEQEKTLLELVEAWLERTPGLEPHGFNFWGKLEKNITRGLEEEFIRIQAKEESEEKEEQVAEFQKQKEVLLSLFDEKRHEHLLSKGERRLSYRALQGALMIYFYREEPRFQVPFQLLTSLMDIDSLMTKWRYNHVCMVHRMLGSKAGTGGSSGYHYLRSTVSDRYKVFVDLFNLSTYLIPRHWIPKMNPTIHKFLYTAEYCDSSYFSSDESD

Take `Cn1ncc(-c2c[nH]c3ccccc23)c1C(F)(F)F` [Compound 77, 3-(1-methyl-5-(trifluoromethyl)-1H-pyrazol-4-yl)-1H-indole]: the IC50 in data set [1] lay within 1000 to 10000 nM; in data set [2], 10 to 100 µM.
As for `CS(=O)(=O)N1CCC(n2cc(-c3c[nH]c4cc(F)ccc34)cn2)CC1` [Compound 106, 6-fluoro-3-(1-(1-(methylsulfonyl)piperidin-4-yl)-1H-pyrazol-4-yl)-1H-indole], the IC50 in data set [1] was under 1000 nM; in data set [2], 1 to 10 µM; in data set [3], under 1000 nM.
In turn, `NC(=O)[C@H]1CC[C@H](n2cc(-c3c[nH]c4cc(F)ccc34)cn2)CC1` [Compound 67, (1R,4R)-4-(4-(6-fluoro-1H-indol-3-yl)-1H-pyrazol-1-yl)cyclohexanecarboxamide] came in with an IC50 in data set [1] of 1000 to 10000 nM.
For the compound `OC1CCC(n2cc(-c3c[nH]c4cc(F)ccc34)cn2)CC1` [Compound 68, (1R,4R)-4-(4-(6-fluoro-1H-indol-3-yl)-1H-pyrazol-1-yl)cyclohexanol], the IC50 in data set [1] is under 1000 nM; in data set [2] it was 1 to 10 µM.
The matching figures for `CS(=O)(=O)CCCC(=O)N1CCC(n2cc(-c3c[nH]c4cc(F)ccc34)cn2)CC1` [Compound 103, 1-(4-(4-(6-fluoro-1H-indol-3-yl)-1H-pyrazol-1-yl)piperidin-1-yl)-4-(methylsulfonyl)butan-1-one]: 1000 to 10000 nM and 10 to 100 µM.
In data set [3], `COCC(=O)N1CCC(n2cc(-c3c[nH]c4cc(F)ccc34)cn2)CC1` [Compound 85, 1-(4-(4-(6-fluoro-1H-indol-3-yl)-1H-pyrazol-1-yl)piperidin-1-yl)-2-methoxyethanone] returned a concentration for half-maximal inhibition (IC50) of under 1000 nM.
`Cc1nn(C)cc1-c1c[nH]c2cc(F)ccc12` [Compound 75, 3-(1,3-dimethyl-1H-pyrazol-4-yl)-6-fluoro-1H-indole]: the values for the IC50 in data set [1] and in data set [2] were under 1000 nM and 1 to 10 µM, respectively.
In the case of `CS(=O)(=O)CCC(=O)N1CCC(n2cc(-c3c[nH]c4cc(F)ccc34)cn2)CC1` [Compound 105, 1-(4-(4-(6-fluoro-1H-indol-3-yl)-1H-pyrazol-1-yl)piperidin-1-yl)-3-(methylsulfonyl)propan-1-one], the values for the IC50 in data set [1] and in data set [2] were under 1000 nM and 1 to 10 µM, respectively.
For `NC(=O)C(O)Cn1cc(-c2c[nH]c3cc(F)ccc23)cn1` (centres unmarked) [Compound 37, 3-(4-(6-fluoro-1H-indol-3-yl)-1H-pyrazol-1-yl)-2-hydroxypropanamide], in that order: under 1000 nM and 1 to 10 µM.
For `O=C(CCO)N1CCC(n2cc(-c3c[nH]c4cc(F)ccc34)cn2)CC1` [Compound 104, 1-(4-(4-(6-fluoro-1H-indol-3-yl)-1H-pyrazol-1-yl)piperidin-1-yl)-3-hydroxypropan-1-one], in that order: under 1000 nM and 1 to 10 µM.
In turn, `Fc1ccc2c(-c3cnn(CC4CCNCC4)c3)c[nH]c2c1` [Compound 43, 6-fluoro-3-(1-(piperidin-4-ylmethyl)-1H-pyrazol-4-yl)-1H-indole] came in with an IC50 in data set [3] of under 1000 nM.
`CC(=O)N1CCC(n2cc(-c3c[nH]c4cc(F)ccc34)cn2)CC1` [Compound 89, 1-(4-(4-(6-fluoro-1H-indol-3-yl)-1H-pyrazol-1-yl)piperidin-1-yl)ethanone] registered a melting point of 183.2 to 184.5 °C. In addition, in data set [4] (30 mg/kg oral gavage, p<0.05), the “increase of circulating Tryptophan” value turned out to be 26%. Besides, the “Tryptophan concentration in plasma (average ± standard error of the mean)” value in data set [4] (30 mg/kg oral gavage) is given as 25126 ng/mL. The “Tryptophan concentration in plasma (average ± standard error of the mean)” value in data set [4] (60 mg/kg oral gavage) is 28452 ng/mL. Also, the “increase of circulating Tryptophan” value in data set [4] (100 mg/kg oral gavage, p<0.001) is on record as 43%. The “Tryptophan concentration in plasma (average ± standard error of the mean)” value in data set [4] (100 mg/kg oral gavage) is 28374 ng/mL. In data set [4] (printed 30 mg/kg (second mention, p<0.001), oral gavage), the “increase of circulating Tryptophan” value is 43%.
Turning to `OC1(Cn2cc(-c3c[nH]c4cc(F)ccc34)cn2)CCOCC1` [Compound 59, 4-((4-(6-fluoro-1H-indol-3-yl)-1H-pyrazol-1-yl)methyl)tetrahydro-2H-pyran-4-ol], the figures for the IC50 in data set [1] and in data set [2] were 1000 to 10000 nM and 1 to 10 µM, respectively.
